Here are results for 26 molecules from patent US12084419B2, “Cell metabolism modulating compounds and uses thereof” (CRESCENTA BIOSCIENCES, priority 2020, dated 2024).

In the assay the target is T1, His6 tagged human recombinant FABP4 (Homo sapiens, UniProt P15090).
T1 construct: purchased Cayman Chemicals 10009549
The assay can be described thus: FABP4 TR-FRET assay: displacement of BODIPY FL C12 fatty acid. The conditions noted are these: triplicates, inhibition of BODIPY FL C12 binding. In outline: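 TR-FRET with a Tb anti-His6 antibody donor and BODIPY FL C12 as acceptor; compounds came from 0.362 and 0.0362 mM DMSO stocks. Protein (83 nM) and antibody (49.6 nM) solutions were premixed 30 min on ice in 25 mM Tris pH 7.4 with γ-globulins, NP-40 and DTT. Incubation was 10 min at room temperature; inhibition came from the 520/615 nm ratio.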
On the technique in general: Time-resolved FRET reads energy transfer from a long-lived donor to a nearby acceptor.

T1 sequence (P15090 whole entry): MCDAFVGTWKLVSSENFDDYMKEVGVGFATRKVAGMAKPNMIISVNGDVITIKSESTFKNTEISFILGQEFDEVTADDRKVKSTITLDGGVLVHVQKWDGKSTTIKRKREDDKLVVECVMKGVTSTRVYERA

In the case of `CCCCCC1Cc2c(n(Cc3cccc(C(N)=O)c3)c3c(C(=O)O)cccc23)C1` (centres unmarked) [4-[(3-carbamoylphenyl)methyl]-2-pentyl-1H,2H,3H,4H-cyclopenta[b]indole-5-carboxylic acid], the inhibition – broadly, the change of the read-out against control, counted positive when it falls – at 1 µM (1 μM compound) is 86.9%. Also, the inhibition at 10 µM (10 μM compound) was determined as 93.1%.
Turning to `CCCCC1Cc2c(n(Cc3cccc(C(N)=O)c3)c3c(C(=O)O)cccc23)C1` (centres unmarked) [2-butyl-4-[(3-carbamoylphenyl)methyl]-1H,2H,3H,4H-cyclopenta[b]indole-5-carboxylic acid], the inhibition at 1 µM (1 μM compound) is 87.2%. Further, the inhibition at 10 µM (10 μM compound) came to 95.2%.
For the molecule `CCCCCCC1CCCc2c(n(Cc3ccc(C#N)s3)c3c(C(=O)O)cccc23)C1` (centres unmarked) [5-[(5-cyanothiophen-2-yl)methyl]-7-hexyl-5H,6H,7H,8H,9H,10H-cyclohepta[b]indole-4-carboxylic acid], where the note is “1 μM compound”, the “FABP4 inhibition (%) at 1 μM Mean” value was 83.31% and the inhibition at 1 µM was determined as 86.6%. Under “10 μM compound”, the “FABP4 inhibition (%) at 10 μM Mean” value is recorded as 89.42% and the inhibition at 10 µM was 87.3%.
For `CCCCCCC1CCCc2c(n(Cc3cccc(C(=O)O)c3)c3c(C(=O)O)cccc23)C1` (centres unmarked) [5-[(3-carboxyphenyl)methyl]-7-hexyl-5H,6H,7H,8H,9H,10H-cyclohepta[b]indole-4-carboxylic acid], the inhibition at 1 µM (1 μM compound) turned out to be 89.8%. Besides, the inhibition at 10 µM (10 μM compound) was 89.2%.
For `CCCCCCC1CCCc2c(n(Cc3ccc(C(N)=O)cc3)c3c(C(=O)O)cccc23)C1` (centres unmarked) [5-[(4-carbamoylphenyl)methyl]-7-hexyl-5H,6H,7H,8H,9H,10H-cyclohepta[b]indole-4-carboxylic acid] the same measures were 77.7% and 83.8%.
Consider `CCCCC1CCCc2c(n(Cc3cccc(C(N)=O)c3)c3c(C(=O)NCCO)cccc23)C1` (centres unmarked) [7-butyl-5-[(3-carbamoylphenyl)methyl]-N-(2-hydroxyethyl)-5H,6H,7H,8H,9H,10H-cyclohepta[b]indole-4-carboxamide], for which the inhibition at 1 µM (1 μM compound) was 10.2%.
Take `CCCCCCC1CCCc2c(n(Cc3ccc4ncoc4c3)c3c(C(=O)O)cccc23)C1` (centres unmarked) [5-[(1,3-benzoxazol-6-yl)methyl]-7-hexyl-5H,6H,7H,8H,9H,10H-cyclohepta[b]indole-4-carboxylic acid]: the inhibition at 1 µM (1 μM compound) was found to be 101%. Also, the inhibition at 10 µM (10 μM compound) was found to be 94.9%.
Turning to `CCCCCCC1CCCc2c(n(Cc3ccc(C)cc3)c3c(C(=O)O)cccc23)C1` (centres unmarked) [7-hexyl-5-[(4-methylphenyl)methyl]-5H,6H,7H,8H,9H,10H-cyclohepta[b]indole-4-carboxylic acid], the inhibition at 1 µM (1 μM compound) was 95.6%. Under “10 μM compound”, the inhibition at 10 µM was 91.7%.
For `CCCCCCC1CCc2c(n(Cc3cccc(O)c3)c3c(C(=O)O)cccc23)C1` (centres unmarked) [2-hexyl-9-[(3-hydroxyphenyl)methyl]-2,3,4,9-tetrahydro-1H-carbazole-8-carboxylic acid] the same measures were 77.9% and 93.1%.
Turning to `CCCCCCC1CCc2c(n(Cc3ccc(C(N)=O)cc3)c3c(C(=O)O)cccc23)C1` (centres unmarked) [9-[(4-carbamoylphenyl)methyl]-2-hexyl-2,3,4,9-tetrahydro-1H-carbazole-8-carboxylic acid], the inhibition at 1 µM (1 μM compound) turned out to be 87.3%. Under “10 μM compound”, the inhibition at 10 µM was 89.3%.
With `CCCCCCCCC1CCCc2c(n(Cc3cccc(C#N)c3)c3c(C(=O)O)cccc23)C1` (centres unmarked) [5-[(3-cyanophenyl)methyl]-7-octyl-5H,6H,7H,8H,9H,10H-cyclohepta[b]indole-4-carboxylic acid], the inhibition at 1 µM (1 μM compound) was 94.5%. For the setting “10 μM compound”, the inhibition at 10 µM amounted to 93%.
Take `CCCC1CCc2c(c3cccc(C(=O)O)c3n2Cc2cccc(C(N)=O)c2)C1` (centres unmarked) [9-[(3-carbamoylphenyl)methyl]-3-propyl-2,3,4,9-tetrahydro-1H-carbazole-8-carboxylic acid]: for the setting “1 μM compound”, the inhibition at 1 µM was found to be 87.3%. The inhibition at 10 µM (10 μM compound) stood at 99.2%.
For `CCCCCCC1CCCc2c(n(Cc3cccc(C)c3)c3c(C(=O)O)cccc23)C1` (centres unmarked) [7-hexyl-5-[(3-methylphenyl)methyl]-5H,6H,7H,8H,9H,10H-cyclohepta[b]indole-4-carboxylic acid] the same measures were 98.6% and 94.7%.
For `CCCCC1CCc2c(c3cccc(C(=O)O)c3n2Cc2cccc(C#N)c2)C1` (centres unmarked) [3-butyl-9-[(3-cyanophenyl)methyl]-2,3,4,9-tetrahydro-1H-carbazole-8-carboxylic acid] the same measures were 35.8% and 81.1%.
For the molecule `CCCCCC1CCCc2c1c1cccc(C(=O)O)c1n2Cc1cccc(C#N)c1` (centres unmarked) [9-[(3-cyanophenyl)methyl]-4-pentyl-2,3,4,9-tetrahydro-1H-carbazole-8-carboxylic acid], under “1 μM compound”, the inhibition at 1 µM is 26.3%. In addition, under “10 μM compound”, the inhibition at 10 µM is 73.7%.
As to `CCCCCCC1CCCc2c(n(Cc3cccc(F)n3)c3c(C(=O)O)cccc23)C1` (centres unmarked) [5-[(6-fluoropyridin-2-yl)methyl]-7-hexyl-5H,6H,7H,8H,9H,10H-cyclohepta[b]indole-4-carboxylic acid], where the note is “1 μM compound”, the inhibition at 1 µM was 86.5%. Where the note is “10 μM compound”, the inhibition at 10 µM amounted to 91.8%.
With `CCC1CCc2c1n(Cc1cccc(C(N)=O)c1)c1c(C(=O)O)cccc21` (centres unmarked) [4-[(3-carbamoylphenyl)methyl]-3-ethyl-1H,2H,3H,4H-cyclopenta[b]indole-5-carboxylic acid], the inhibition at 1 µM (1 μM compound) was 87.3%. Moreover, the inhibition at 10 µM (10 μM compound) worked out at 102%.
Regarding `CCCCCCC1CCc2c(n(Cc3ccccc3C#N)c3c(C(=O)O)cccc23)C1` (centres unmarked) [9-[(2-cyanophenyl)methyl]-2-hexyl-2,3,4,9-tetrahydro-1H-carbazole-8-carboxylic acid], under “1 μM compound”, the inhibition at 1 µM is 87.3%. Moreover, the inhibition at 10 µM (10 μM compound) was determined as 92.7%.
Regarding `CCCCCOC1CCCc2c1n(Cc1cccc(C#N)c1)c1c(C(=O)O)cccc21` (centres unmarked) [9-[(3-cyanophenyl)methyl]-1-(pentyloxy)-2,3,4,9-tetrahydro-1H-carbazole-8-carboxylic acid], the inhibition at 1 µM (1 μM compound) came to 7.56%. Also, where the note is “10 μM compound”, the inhibition at 10 µM stood at 63.3%.
Take `CCCCCCC1CCCc2c(n(Cc3ccccc3C)c3c(C(=O)O)cccc23)C1` (centres unmarked) [7-hexyl-5-[(2-methylphenyl)methyl]-5H,6H,7H,8H,9H,10H-cyclohepta[b]indole-4-carboxylic acid]: the inhibition at 1 µM (1 μM compound) is 92.7%. Also, for the setting “10 μM compound”, the inhibition at 10 µM stood at 84.2%.
Turning to `CCCCC1CCCc2c(n(Cc3cccc(C)c3)c3c(C(=O)O)cccc23)C1` (centres unmarked) [7-butyl-5-[(3-methylphenyl)methyl]-5H,6H,7H,8H,9H,10H-cyclohepta[b]indole-4-carboxylic acid], the inhibition at 1 µM (1 μM compound) was 94.8%. In addition, under “10 μM compound”, the inhibition at 10 µM is 91%.
Turning to `CCC1CCCc2c1n(Cc1cccc(C#N)c1)c1c(C(=O)O)cccc21` (centres unmarked) [9-[(3-cyanophenyl)methyl]-1-ethyl-2,3,4,9-tetrahydro-1H-carbazole-8-carboxylic acid], the inhibition at 1 µM (1 μM compound) amounted to 44.2%. Besides, the inhibition at 10 µM (10 μM compound) came to 87.6%.
Take `CCCCC1CCCc2c1c1cccc(C(=O)O)c1n2Cc1cccc(C(N)=O)c1` (centres unmarked) [4-butyl-9-[(3-carbamoylphenyl)methyl]-2,3,4,9-tetrahydro-1H-carbazole-8-carboxylic acid]: where the note is “1 μM compound”, the inhibition at 1 µM was determined as 43.3%. Also, the inhibition at 10 µM (10 μM compound) was 83.4%.
`CCCCCCC1CCCc2c(n(Cc3cccc(C(N)=O)c3)c3c(C(=O)O)cccc23)C1` (centres unmarked) [5-[(3-carbamoylphenyl)methyl]-7-hexyl-5H,6H,7H,8H,9H,10H-cyclohepta[b]indole-4-carboxylic acid]: the inhibition at 1 µM (1 μM compound) was 102%. In addition, the inhibition at 10 µM (10 μM compound) is 94.2%.
With `CCC1CCCCc2c1c1cccc(C(=O)O)c1n2Cc1cccc(C(N)=O)c1` (centres unmarked) [5-[(3-carbamoylphenyl)methyl]-10-ethyl-5H,6H,7H,8H,9H,10H-cyclohepta[b]indole-4-carboxylic acid], under “1 μM compound”, the inhibition at 1 µM worked out at 86.4%. For the same molecule, the inhibition at 10 µM (10 μM compound) is 98%.
For `CCC1CCCc2c(n(Cc3cccc(C#N)c3)c3c(C(=O)O)cccc23)C1` (centres unmarked) [5-[(3-cyanophenyl)methyl]-7-ethyl-5H,6H,7H,8H,9H,10H-cyclohepta[b]indole-4-carboxylic acid] the same measures were 90% and 97%.
